Assay results as given in patent EP1000062B1, “TRICYCLIC VASOPRESSIN AGONISTS” (Wyeth, priority 1997, dated 1999).

Tested on: Vasopressin V2
Test: Vasopressin V2 agonist effects of test compounds in normal conscious water-loaded rats
Format: in vivo
Conditions: Sprague-Dawley (CD) rats, oral 10 mg/kg, urine collected for four hours; for Osmolality (% Increase): change in osmolality as percent of control; for Urine Volume (% decrease): vs. control
Protocol: Vasopressin V2 Agonist Effects of Test Compounds in Normal Conscious Water-Loaded Rats:
On the day of test, rats were placed individually into metabolic cages equipped with devices to separate the feces from the urine and containers for collection of urine. Test compound or reference agent was given at an oral dose of 10 mg/kg in a volume of 10 ml /kg. […] Thirty minutes after dosing the test compound, rats were gavaged with water at 30 ml /kg into the stomach using a feeding needle. During the test, rats were not provided with water or food. Urine was collected for four hours after dosing of the test compound. At the end of four hours, urine volume was measured. […] Determinations of Na^+, K^+ and Cl^- ion were carried out using ion specific electrodes in a Beckman SYNCHRON EL-ISE Electrolyte System analyzer. […] In the screening test, two rats were used for each compound. If the difference in the urine volume of the two rats was greater than 50%, a third rat was used.

Structure (SMILES)	Osmolality (% Increase) [%]	Urine Volume (% decrease) [%]
Cc1cnn(-c2ccc(C(=O)N3Cc4cccn4Cc4ccccc43)c(C(F)(F)F)c2)c1 [Example 3, [4-(4-Methyl-pyrazol-1-yl)-2-trifluoromethyl-phenyl]-(5H,11H-pyrrolo[2,1-c][1,4]benzodiazepin-10-yl)-methanone]	240	58
O=C(c1ccc(-n2cccn2)cc1C(F)(F)F)N1Cc2cccn2Cc2ccccc21 [Example 4, (4-Pyrazol-1-yl-2-trifluoromethyl-phenyl)-(5H,11H-pyrrolo[2,1-c][1,4]benzodiazepin-10-yl)-methanone]	225	57
O=C(c1ccc(-n2ccc(C3CC3)n2)cc1C(F)(F)F)N1Cc2cccn2Cc2ccccc21 [Example 5, [4-(3-Cyclopropyl-pyrazol-1-yl)-2-trifluoromethy-phenyl]-(5H,11H-pyrrolo[2,1-c][1,4]benzodiazepin-10-yl)-methanone]	231	56
Cc1cn(-c2ccc(C(=O)N3Cc4cccn4Cc4ccccc43)c(C(F)(F)F)c2)cn1 [Example 6, [4-(4-Methyl-imidazol-1-yl)-2-trifluoromethyl-phenyl]-(5H,11H-pyrrolo[2,1-c][1,4]benzodiazepin-10-yl)-methanone]	270	58
O=C(c1ccc(-n2cncn2)cc1C(F)(F)F)N1Cc2cccn2Cc2ccccc21 [Example 7, (5H,11H-Pyrrolo[2,1-c][1,4]benzodiazepin-10-yl)-(4-[1,2,4]triazol-1-yl-2-trifluoromethylphenyl)-methanone]	137	13
Cc1ccn(-c2ccc(C(=O)N3Cc4cccn4Cc4ccccc43)c(Cl)c2)n1 [Example 9A]	325	70
Cc1ccnn1-c1ccc(C(=O)N2Cc3cccn3Cc3ccccc32)c(Cl)c1 [Example 9B]	168	21
Cc1cnn(-c2ccc(C(=O)N3Cc4cccn4Cc4ccccc43)c(Cl)c2)c1 [Example 11]	285	70
Cc1cn(-c2ccc(C(=O)N3Cc4cccn4Cc4ccccc43)c(Cl)c2)cn1 [Example 12, [2-Chloro-4-(4-methyl-imidazol-1-yl)-phenyl]-(5H,11H-pyrrolo[2,1-c][1,4]benzodiazepin-10-yl)-methanone]	330	69
O=C(c1ccc(-n2ccc(C(F)(F)F)n2)cc1Cl)N1Cc2cccn2Cc2ccccc21 [Example 13, [2-Chloro-4-(3-trifluoromethyl-pyrazol-1-yl)-phenyl]-(5H,11H-pyrrolo[2,1-c][1,4]benzodiazepin-10-yl)-methanone]	229	50
O=C(c1ccc(-n2cncn2)cc1Cl)N1Cc2cccn2Cc2ccccc21 [Example 14, [2-Chloro-4-(1,2,4-triazol-1-yl)-phenyl]-(5H,11H-pyrrolo[2,1-c][1,4]benzodiazepin-10-yl)-methanone]	406	86
O=C(c1ccc(-n2cccc2)cc1Cl)N1Cc2cccn2Cc2ccccc21 [Example 15, (2-Chloro-4-pyrrol-1-yl-phenyl)-(5H,11H-pyrrolo[2,1-c][1,4]benzodiazepin-10-yl)-methanone]	38	47
O=C(c1ccc(-n2cccn2)cc1Cl)N1Cc2cccn2Cc2ccccc21 [Example 16, (2-Chloro-4-pyrazol-1-yl-phenyl)(5H,11H-Pyrrolo[2,1-c][1,4]benzodiazepin-10-yl)-methanone]	400	88
Cc1ccn(-c2ccc(C(=O)N3Cc4ccc(C)n4Cc4ccccc43)c(Cl)c2)n1 [Example 18, [2-Chloro-4-(3-methylpyrazol-1-yl)-phenyl]-(3-methyl-5H,11H-pyrrolo[2,1-c][1,4]benzodiazepin-10-yl)-methanone]	214	52
Cc1cnn(-c2ncc(C(=O)N3Cc4cccn4Cc4ccccc43)c(C(F)(F)F)n2)c1 [Example 21, [2-(4-Methyl-pyrazol-1-yl)-4-trifluoromethyl-pyrimidin-5-yl]-(5H,11H-pyrrolo[2,1-c][1,4]benzodiazepin-10-yl)-methanone]	181	49
CC(=O)c1ccc(C(=O)N2Cc3cccn3Cc3ccccc32)cc1 [Example 22, 1-[4-(5H,11H-Pyrrolo[2,1-c][1,4]benzodiazepine-10-carbonyl)-phenyl]-ethanone]	322	80
O=C(c1ccc(-c2cc[nH]n2)cc1)N1Cc2cccn2Cc2ccccc21 [Example 24, [4-(1H-Pyrazol-3-yl)-phenyl]-(5H,11H-pyrrolo[2,1-c][1,4]benzodiazepin-10-yl)-methanone]	159	47
Cn1ccc(-c2ccc(C(=O)N3Cc4cccn4Cc4ccccc43)cc2)n1 [Example 25, [4-(1-Methyl-1H-pyrazolyl-3-yl)-phenyl]-(5H,11H-pyrrolo[2,1-c][1,4]-benzodiazepin-10-yl)-methanone]	979	87
CCn1ccc(-c2ccc(C(=O)N3Cc4cccn4Cc4ccccc43)cc2)n1 [Example 26, [4-(1-Ethyl-1H-pyrazol-3-yl)-phenyl]-(5H,11H-pyrrolo[2,1-c][1,4]-benzodiazepin-10-yl)-methanone]	279	54
CCCn1ccc(-c2ccc(C(=O)N3Cc4cccn4Cc4ccccc43)cc2)n1 [Example 27, [4-(1-Propyl-1H-pyrazol-3-yl)-phenyl]-(5H,11H-pyrrolo[2,1-c][1,4]-benzodiazepin-10-yl)-methanone]	183	76
CCCCn1ccc(-c2ccc(C(=O)N3Cc4cccn4Cc4ccccc43)cc2)n1 [Example 28, [4-(1-Butyl-1H-pyrazol-3-yl)-phenyl]-(5H,11H-pyrrolo[2,1-c][1,4]-benzodiazepin-10-yl)-methanone]	37	75
COCn1ccc(-c2ccc(C(=O)N3Cc4cccn4Cc4ccccc43)cc2)n1 [Example 29, [4-(1-methoxymethyl-1H-pyrazol-3-yl)-phenyl]-(5H,11H-pyrrolo[2,1-c][1,4]-benzodiazepin-10-yl)-methanone]	305	66
CCC(=O)n1ccc(-c2ccc(C(=O)N3Cc4cccn4Cc4ccccc43)cc2)n1 [Example 31, 1-{3-[4-(5H,11H-Pyrrolo[2,1-c][1,4]benzodiazepine-10-carbonyl)-phenyl]-pyrazol-1-yl}-propan-1-one]	298	72
O=C(c1ccc(-c2ccn(C(=O)C3CC3)n2)cc1)N1Cc2cccn2Cc2ccccc21 [Example 32, [4-(1-Cyclopropanecarbonyl-1H-pyrazol-3-yl)-phenyl]-(5H,11H-pyrrolo[2,1-c][1,4]benzodiazepin-10-yl)-methanone]	373	77
CCCC(=O)n1ccc(-c2ccc(C(=O)N3Cc4cccn4Cc4ccccc43)cc2)n1 [Example 33, 1-{3-[4-(5H,11H-Pyrrolo[2,1-c][1,4]benzodiazepine-10-carbonyl)-phenyl]-pyrazol-1-yl}-butan-1-one]	362	68
Cc1ccc(F)cc1C(=O)n1ccc(-c2ccc(C(=O)N3Cc4cccn4Cc4ccccc43)cc2)n1 [Example 35, {4-[1-(5-Fluoro-2-methyl-benzoyl)-1H-pyrazol-3-yl]-phenyl}-(5H,11H-pyrrolo[2,1-c][1,4]benzodiazepin-10-yl)-methanone]	308	63
O=C(c1ccc(-c2ccn(C(=O)c3ccc(F)cc3Cl)n2)cc1)N1Cc2cccn2Cc2ccccc21 [Example 37, {4-[1-(2-Chloro-4-fluoro-benzoyl)-1H-pyrazol-3-yl]-phenyl}-(5H,11H-pyrrolo[2,1-c][1,4]benzodiazepin-10-yl]methanone]	370	71
O=C(c1ccc(-c2ccn(C(=O)Cc3ccc(Cl)cc3Cl)n2)cc1)N1Cc2cccn2Cc2ccccc21 [Example 39, 2-(2,4-Dichloro-phenyl)-1-{3-[4-(5H,11H-pyrrolo[2,1-c][1,4]benzodiazepine-10-carbonyl)-phenyl]-pyrazol-1-yl}-ethanone]	253	69
O=C(c1ccc(-c2ccn(C(=O)c3ccccc3-c3ccccc3)n2)cc1)N1Cc2cccn2Cc2ccccc21 [Example 40, {4-[1-(Biphenyl-2-carbonyl)-1H-pyrazol-3-yl]-phenyl}-(5H,11H-pyrrolo[2,1-c][1,4]benzodiazepin-10-yl)-methanone]	183	46
O=C(c1ccc(-c2ccn(C(=O)c3ccccc3-c3ccc(C(F)(F)F)cc3)n2)cc1)N1Cc2cccn2Cc2ccccc21 [Example 41, {4-[1-(4'-Trifluoromethyl-biphenyl-2-carbonyl)-1H-pyrazol-3-yl]-phenyl}-(5H,11H-pyrrolo[2,1-c][1,4]benzodiazepin-10-yl)-methanone]	240	69
